Measured values from US5620958A, “Bradykinin antagonists” (Coretech, Inc., priority 1994, dated 1997).
Square brackets hold non-standard residues; d marks the D form. Peptide text beside a SMILES is read from it. Oic = O=C(O)[C@@H]1C[C@@H]2CCCC[C@@H]2N1; Hyp = O=C(O)[C@@H]1C[C@@H](O)CN1; dTic = O=C(O)[C@H]1Cc2ccccc2CN1; 2Thi = N[C@@H](Cc1cccs1)C(=O)O

Assays:
BK2 receptor [1] = target: T1, BK2 receptor (Oryctolagus cuniculus, UniProt Q28642); assay: blood pressure response to BK2 agonist in LPS-pretreated rabbits; format: in vivo, rabbit; parameters: key to OBSERVED ANTAGONIST ACTIVITY BK2: +: indicates complete blockade of the blood pressure response to the appropriate agonist; +/-: indicates partial blockade; -: indicates no observable effect at the dose indicated; conditions: rabbits given LPS (10 μg) 20 hours before
T1 construct: when administered to an intact animal; from tissue; host or cells: whole rabbit (systemic arterial blood pressure), LPS-pretreated
T1 sequence (Q28642 1-367): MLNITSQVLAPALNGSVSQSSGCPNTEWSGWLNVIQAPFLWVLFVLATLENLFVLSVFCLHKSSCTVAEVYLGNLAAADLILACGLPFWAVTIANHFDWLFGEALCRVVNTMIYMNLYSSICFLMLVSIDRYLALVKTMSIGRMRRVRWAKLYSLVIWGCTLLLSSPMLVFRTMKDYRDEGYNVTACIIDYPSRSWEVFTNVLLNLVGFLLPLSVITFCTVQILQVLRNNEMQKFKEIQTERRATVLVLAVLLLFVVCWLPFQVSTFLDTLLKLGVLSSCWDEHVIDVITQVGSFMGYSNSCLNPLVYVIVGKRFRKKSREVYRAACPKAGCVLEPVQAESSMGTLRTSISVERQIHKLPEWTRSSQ

BK1 receptor = target: T2, BK1 receptor (Oryctolagus cuniculus, UniProt P48748); assay: blood pressure response to BK1 agonist in LPS-pretreated rabbits; format: in vivo, rabbit; conditions: rabbits given LPS (10 μg) 20 hours before
T2 construct: when administered to an intact animal; from tissue; host or cells: whole rabbit (systemic arterial blood pressure), LPS-pretreated
T2 sequence (P48748 1-352): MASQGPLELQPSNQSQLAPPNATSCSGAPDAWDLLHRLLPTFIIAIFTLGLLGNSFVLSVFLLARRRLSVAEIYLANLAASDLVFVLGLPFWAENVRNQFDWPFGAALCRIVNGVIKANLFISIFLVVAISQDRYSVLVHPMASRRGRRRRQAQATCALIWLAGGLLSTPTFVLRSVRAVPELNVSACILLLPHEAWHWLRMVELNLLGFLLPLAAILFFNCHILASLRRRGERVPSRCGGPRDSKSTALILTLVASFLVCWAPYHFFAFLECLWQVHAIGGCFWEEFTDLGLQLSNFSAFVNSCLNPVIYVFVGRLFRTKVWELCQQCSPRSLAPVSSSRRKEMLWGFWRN

BK2 receptor [2] = target: T3, BK2 receptor (Cavia porcellus, UniProt O70526); assay: guinea-pig ileum (GPI) in vitro, antagonism of BK; format: cell-based; conditions: Table B; read-out: pA2 GUINEA PIG ILEUM (converted)
T3 construct: tested for activity on guinea pig ileum in vitro on the standard tissue bath/strain gauge system; from tissue; host or cells: guinea pig ileum
T3 sequence (O70526 1-372): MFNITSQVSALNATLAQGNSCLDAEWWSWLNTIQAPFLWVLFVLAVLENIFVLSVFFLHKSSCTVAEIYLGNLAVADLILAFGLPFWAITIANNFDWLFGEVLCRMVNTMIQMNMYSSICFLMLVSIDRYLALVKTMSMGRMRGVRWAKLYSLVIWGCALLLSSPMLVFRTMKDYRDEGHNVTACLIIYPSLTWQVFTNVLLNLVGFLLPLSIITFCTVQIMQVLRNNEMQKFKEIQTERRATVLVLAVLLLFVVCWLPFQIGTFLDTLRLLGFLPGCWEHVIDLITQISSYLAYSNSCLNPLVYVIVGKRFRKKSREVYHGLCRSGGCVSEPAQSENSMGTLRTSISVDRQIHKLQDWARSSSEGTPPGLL
Method: Thus, in vitro studies were performed on standard assay systems, namely, guinea-pig ileum (GPI), rat uterus (RU) and rabbit jugular vein (RJV). […] The potency of each compound was assessed as a pA2 value according to the method of Arunlakshana & Schild, Br. J. Pharmacol. Chemother., 1.4:48-58 (1959). The pA2 can be defined as the negative logarithm of the molar concentration of the antagonist in the presence of which the potency of the agonist is reduced two-fold, i.e., twice the amount of agonist is required to produce a given response in the presence of, than in the absence of, the antagonist. A high potency of antagonism is indicated by a high pA2 value, i.e., a low concentration of antagonist is effective.
The percentage recovery (% Rec) was also determined for compounds with respect to each assay.
The various compounds identified in Table B below were prepared following the procedure of Example 1 with the Cys moiety introduced into the parent CP-0088 at the position indicated followed by reaction between the sulfhydryl group of the Cys residue and BMH to provide dimers as indicated. The Cys-modified monomers and the resultant dimers were tested for activity on guinea pig ileum in vitro on the standard tissue bath/strain gauge system as before.

BK2 receptor [3] = target: T4, BK2 receptor (Rattus norvegicus, UniProt P25023); assay: cell-based
T4 sequence (P25023 1-396): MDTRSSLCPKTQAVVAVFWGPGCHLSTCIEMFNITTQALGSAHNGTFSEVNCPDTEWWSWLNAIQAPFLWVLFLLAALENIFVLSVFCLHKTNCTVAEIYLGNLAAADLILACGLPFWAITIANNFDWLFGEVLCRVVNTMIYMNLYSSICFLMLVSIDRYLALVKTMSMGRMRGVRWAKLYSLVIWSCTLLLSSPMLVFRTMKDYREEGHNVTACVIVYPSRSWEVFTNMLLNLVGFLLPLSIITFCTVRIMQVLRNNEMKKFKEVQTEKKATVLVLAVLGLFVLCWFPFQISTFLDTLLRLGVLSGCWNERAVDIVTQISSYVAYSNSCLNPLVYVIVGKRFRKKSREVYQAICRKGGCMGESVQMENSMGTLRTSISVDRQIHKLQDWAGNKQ

SMILES	OBSERVED ANTAGONIST ACTIVITY BK2 (BK2 receptor [1]; 1 μg kg^-1 min^-1)	OBSERVED ANTAGONIST ACTIVITY BK2 (BK2 receptor [1]; 3 μg kg^-1 min^-1)	OBSERVED ANTAGONIST ACTIVITY BK2 (BK2 receptor [1]; 10 μg kg^-1 min^-1)	OBSERVED ANTAGONIST ACTIVITY BK1 (BK1 receptor; 1 μg kg^-1 min^-1)	OBSERVED ANTAGONIST ACTIVITY BK1 (BK1 receptor; 3 μg kg^-1 min^-1)	OBSERVED ANTAGONIST ACTIVITY BK1 (BK1 receptor; 10 μg kg^-1 min^-1)	Kb (BK2 receptor [2]) [nM]	Kb (BK2 receptor [3]) [nM]
CC(C)C[C@H](NC(=O)[C@@H](Cc1ccccc1)NC(=O)[C@H](CO)NC(=O)[C@H](Cc1ccccc1)NC(=O)CNC(=O)[C@@H]1C[C@@H](O)CN1C(=O)[C@@H]1CCCN1C(=O)[C@H](CSC1CC(=O)N(CCCCCCN2C(=O)CC(SC[C@H](NC(=O)[C@H](Cc3ccccc3)NC(=O)CNC(=O)[C@@H]3C[C@@H](O)CN3C(=O)[C@@H]3CCCN3C(=O)[C@H](CCCNC(=N)N)NC(=O)[C@H](N)CCCNC(=N)N)C(=O)N[C@H](Cc3ccccc3)C(=O)N[C@@H](CC(C)C)C(=O)N[C@@H](CCCNC(=N)N)C(=O)O)C2=O)C1=O)NC(=O)[C@H](N)CCCNC(=N)N)C(=O)O (some centres unmarked) [CP-0386] (HELM PEPTIDE1{[dR].R.P.[Hyp].G.F.C.[dF].L.R}|PEPTIDE2{[dR].C.P.[Hyp].G.F.S.[dF].L}|CHEM1{[O=C1CC([*:1])C(=O)N1CCCCCCN1C(=O)CC([*:2])C1=O]}$PEPTIDE1,CHEM1,7:R3-1:R1|PEPTIDE2,CHEM1,2:R3-1:R2$$$V2.0; N-terminus and C-terminus assumed)	+	+	+	+	+	+		
CC(C)C[C@H](NC(=O)[C@@H](Cc1ccccc1)NC(=O)[C@H](CO)NC(=O)[C@H](Cc1ccccc1)NC(=O)CNC(=O)[C@H](CS)NC(=O)[C@@H]1CCCN1C(=O)[C@H](CCCNC(=N)N)NC(=O)[C@H](N)CCCNC(=N)N)C(=O)N[C@@H](CCCNC(=N)N)C(=O)O [CP-0143] (HELM PEPTIDE1{[dR].R.P.C.G.F.S.[dF].L.R}$$$$V2.0)							200	
CC(C)C[C@H](NC(=O)[C@@H](Cc1ccccc1)NC(=O)[C@H](CO)NC(=O)[C@H](CS)NC(=O)CNC(=O)[C@@H]1C[C@@H](O)CN1C(=O)[C@@H]1CCCN1C(=O)[C@H](CCCNC(=N)N)NC(=O)[C@H](N)CCCNC(=N)N)C(=O)N[C@@H](CCCNC(=N)N)C(=O)O [CP-0144] (HELM PEPTIDE1{[dR].R.P.[Hyp].G.C.S.[dF].L.R}$$$$V2.0)							398	
CC(C)C[C@H](NC(=O)[C@@H]1CCCN1C(=O)[C@H](CO)NC(=O)[C@H](Cc1ccccc1)NC(=O)CNC(=O)[C@@H]1CCCN1C(=O)[C@@H]1CCCN1C(=O)[C@H](CCCNC(=N)N)NC(=O)[C@@H](N)CCCCN)C(=O)O [CP-0298, Lys^0Arg^1Pro^2Pro^3Gly^4Phe^5Ser^6Pro^7Leu^8, reference compound]	-	-	-	+	+	+		
N=C(N)NCCC[C@@H](N)C(=O)N[C@@H](CCCNC(=N)N)C(=O)N1CCC[C@H]1C(=O)N1C[C@H](O)C[C@H]1C(=O)NCC(=O)N[C@@H](Cc1cccs1)C(=O)N[C@@H](CO)C(=O)N1Cc2ccccc2C[C@@H]1C(=O)N1[C@H](C(=O)O)C[C@@H]2CCCC[C@@H]21 [CP-0345] (H-[dR]RP[Hyp]G[2Thi]S[dTic][Oic]-OH; N-terminus and C-terminus assumed)	-	+/-	+	-	+	+		
CC(C)C[C@H](NC(=O)[C@@H](Cc1ccccc1)NC(=O)[C@H](CO)NC(=O)[C@H](Cc1ccccc1)NC(=O)CNC(=O)[C@@H]1C[C@@H](O)CN1C(=O)[C@@H]1CCCN1C(=O)[C@H](CCCNC(=N)N)NC(=O)[C@H](N)CS)C(=O)N[C@@H](CCCNC(=N)N)C(=O)O [CP-0149] (HELM PEPTIDE1{[dC].R.P.[Hyp].G.F.S.[dF].L.R}$$$$V2.0)							200	
CC(C)C[C@H](NC(=O)[C@@H](Cc1ccccc1)NC(=O)[C@H](CSC1CC(=O)N(CCCCCCCCCCN2C(=O)CC(SC[C@H](NC(=O)[C@H](Cc3ccccc3)NC(=O)CNC(=O)[C@@H]3C[C@@H](O)CN3C(=O)[C@@H]3CCCN3C(=O)[C@H](CCCNC(=N)N)NC(=O)[C@H](N)CCCNC(=N)N)C(=O)N[C@H](Cc3ccccc3)C(=O)N[C@@H](CC(C)C)C(=O)N[C@@H](CCCNC(=N)N)C(=O)O)C2=O)C1=O)NC(=O)[C@H](Cc1ccccc1)NC(=O)CNC(=O)[C@@H]1C[C@@H](O)CN1C(=O)[C@@H]1CCCN1C(=O)[C@H](CCCNC(=N)N)NC(=O)[C@H](N)CCCNC(=N)N)C(=O)N[C@@H](CCCNC(=N)N)C(=O)O (some centres unmarked) [CP-0230] (HELM PEPTIDE1{[dR].R.P.[Hyp].G.F.C.[dF].L.R}|PEPTIDE2{[dR].R.P.[Hyp].G.F.C.[dF].L.R}|CHEM1{[O=C1CC([*:1])C(=O)N1CCCCCCCCCCN1C(=O)CC([*:2])C1=O]}$PEPTIDE1,CHEM1,7:R3-1:R1|PEPTIDE2,CHEM1,7:R3-1:R2$$$V2.0)								2.51
N=C(N)NCCC[C@@H](N)C(=O)N[C@@H](CCCNC(=N)N)C(=O)N1CCC[C@H]1C(=O)N1C[C@H](O)C[C@H]1C(=O)NCC(=O)N[C@@H](Cc1ccccc1)C(=O)N[C@@H](CO)C(=O)N1Cc2ccccc2C[C@@H]1C(=O)N1[C@H](C(=O)O)C[C@@H]2CCCC[C@@H]21 [CP-0267] (HELM PEPTIDE1{[dR].R.P.[Hyp].G.F.S.[O=C([C@H]1Cc2ccccc2CN1[*:1])[*:2]].[O=C(O)[C@@H]1C[C@@H]2CCCC[C@@H]2N1[*:1]]}$$$$V2.0)	-	-	+/-	-	-	+		
CC(C)C[C@H](NC(=O)[C@@H](Cc1ccccc1)NC(=O)[C@H](CSC1CC(=O)N(CCCCCCCCCN2C(=O)CC(SC[C@H](NC(=O)[C@H](Cc3ccccc3)NC(=O)CNC(=O)[C@@H]3C[C@@H](O)CN3C(=O)[C@@H]3CCCN3C(=O)[C@H](CCCNC(=N)N)NC(=O)[C@H](N)CCCNC(=N)N)C(=O)N[C@H](Cc3ccccc3)C(=O)N[C@@H](CC(C)C)C(=O)N[C@@H](CCCNC(=N)N)C(=O)O)C2=O)C1=O)NC(=O)[C@H](Cc1ccccc1)NC(=O)CNC(=O)[C@@H]1C[C@@H](O)CN1C(=O)[C@@H]1CCCN1C(=O)[C@H](CCCNC(=N)N)NC(=O)[C@H](N)CCCNC(=N)N)C(=O)N[C@@H](CCCNC(=N)N)C(=O)O (some centres unmarked) [CP-0229] (HELM PEPTIDE1{[dR].R.P.[Hyp].G.F.C.[dF].L.R}|PEPTIDE2{[dR].R.P.[Hyp].G.F.C.[dF].L.R}|CHEM1{[O=C1CC([*:1])C(=O)N1CCCCCCCCCN1C(=O)CC([*:2])C1=O]}$PEPTIDE1,CHEM1,7:R3-1:R1|PEPTIDE2,CHEM1,7:R3-1:R2$$$V2.0)								0.501
